One test concerns HepG2. Nature of the test: cells. Conditions: Homo sapiens, HepG2, 48 h.
The target in test [1] is Epidermal growth factor receptor (Homo sapiens, UniProt P00533). Nature of the test: Inhibition of human EGFR autophosphorylation expressed in Sf9 cells DELFIA assay. It counts as cell-based.

Molecules are shown by their SMILES. pIC50: −log10 of the molar value. Converted amounts (≈) assume the structure as drawn.

Chain of Epidermal growth factor receptor (P00533 whole entry): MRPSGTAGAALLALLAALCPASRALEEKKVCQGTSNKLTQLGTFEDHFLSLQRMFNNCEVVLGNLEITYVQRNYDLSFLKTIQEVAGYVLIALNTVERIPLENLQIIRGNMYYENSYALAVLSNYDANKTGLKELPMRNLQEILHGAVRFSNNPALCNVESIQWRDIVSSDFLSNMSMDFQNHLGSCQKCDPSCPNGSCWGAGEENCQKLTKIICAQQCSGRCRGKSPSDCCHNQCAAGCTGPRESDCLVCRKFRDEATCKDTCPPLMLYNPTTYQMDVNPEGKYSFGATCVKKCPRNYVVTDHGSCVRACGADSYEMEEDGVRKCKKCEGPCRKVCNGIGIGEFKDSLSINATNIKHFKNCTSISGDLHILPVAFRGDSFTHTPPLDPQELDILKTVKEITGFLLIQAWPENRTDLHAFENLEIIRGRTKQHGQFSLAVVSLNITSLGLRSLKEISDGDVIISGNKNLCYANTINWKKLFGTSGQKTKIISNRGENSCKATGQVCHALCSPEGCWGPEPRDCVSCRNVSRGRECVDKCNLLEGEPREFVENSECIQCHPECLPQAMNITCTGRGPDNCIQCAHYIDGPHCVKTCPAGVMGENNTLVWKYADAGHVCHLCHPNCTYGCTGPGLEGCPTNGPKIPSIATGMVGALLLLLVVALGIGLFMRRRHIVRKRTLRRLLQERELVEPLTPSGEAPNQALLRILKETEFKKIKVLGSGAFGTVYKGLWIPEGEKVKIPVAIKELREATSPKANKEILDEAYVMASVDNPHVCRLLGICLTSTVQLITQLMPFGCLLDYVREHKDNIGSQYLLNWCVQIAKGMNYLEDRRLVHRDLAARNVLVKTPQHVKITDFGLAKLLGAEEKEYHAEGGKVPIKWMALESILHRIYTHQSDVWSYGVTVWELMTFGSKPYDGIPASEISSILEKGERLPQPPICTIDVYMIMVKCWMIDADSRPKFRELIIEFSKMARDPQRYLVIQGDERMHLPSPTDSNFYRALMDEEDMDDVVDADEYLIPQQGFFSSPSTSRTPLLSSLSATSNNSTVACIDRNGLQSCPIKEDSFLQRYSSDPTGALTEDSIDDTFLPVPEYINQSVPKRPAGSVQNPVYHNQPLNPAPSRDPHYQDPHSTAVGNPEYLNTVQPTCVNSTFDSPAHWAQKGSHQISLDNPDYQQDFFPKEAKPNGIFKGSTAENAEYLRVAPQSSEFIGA
Description for HepG2: Cytotoxicity against human HepG2 cells after 48 hrs by MTT assay

One may read the IC50 as the concentration at which inhibition is half-maximal. Read a low IC50 as greater potency in that assay. The compound `COC(=O)c1c(C(=O)OC)c2c3ccccc3ccn2c1C(=O)C1CC1` showed an IC50 in the test with HepG2 of 27 µg/mL (≈ 76.8 µM).

`N#Cc1cc(C(=O)C2CC2)n2ccc3ccccc3c12` showed an IC50 in the test with HepG2 of 4.3 µg/mL (≈ 16.5 µM).

With `N#Cc1cc(C(=O)C2CC2)n2c1ccc1nccn12`, it took 15 µg/mL (≈ 59.9 µM) to reach half-maximal inhibition with HepG2 (IC50).

For the compound `Cc1ccn2c(C(=O)C3CC3)cc(C#N)c2c1`, 21 µg/mL (≈ 93.6 µM) corresponded to half-maximal inhibition with HepG2 (IC50). This IC50 and that of the compound before are within 1.5-fold of each other.

In the test on HepG2, `O=C(c1c2c(c3ccccn13)C(=O)N(c1ccccc1)C2=O)C1CC1` registered an IC50 of 0.48 µg/mL (≈ 1.45 µM). Against the preceding compound, the IC50 is about 44-fold lower.

`COC(=O)c1cc(C(=O)C2CC2)n2ccc(C)cc12` registered an IC50 in the test on HepG2 of 25 µg/mL (≈ 97.2 µM).

In the case of `N#Cc1cc(C(=O)C2CC2)n2c1ccc1ccccc12`, the IC50 in the test with HepG2 amounted to 2.1 µg/mL (≈ 8.07 µM).

The compound `COC(=O)c1cc(C(=O)C2CC2)n2c1ccc1nccn12` returned an IC50 in the test with HepG2 of 25 µg/mL (≈ 88.2 µM). This IC50 lies about 12-fold higher than the previous one.

`COC(=O)c1cc(C(=O)C2CC2)n2c(C)ccc(Br)c12` gave an IC50 with HepG2 of 1.1 µg/mL (≈ 3.27 µM).

In the case of `COC(=O)c1cc(C(=O)C2CC2)n2c(Br)cccc12`, the IC50 with HepG2 was determined as 2.5 µg/mL (≈ 7.76 µM). This IC50 lies about 2.3-fold higher than the previous one.

`COC(=O)c1cc(C(=O)C2CC2)n2c1ccc1ccccc12` came in with an IC50 with HepG2 of 4.6 µg/mL (≈ 15.7 µM).

Regarding `CCOC(=O)c1c(C(=O)OCC)c2ccccn2c1C(=O)C1CC1`, the IC50 with HepG2 was 32 µg/mL (≈ 97.2 µM).

With `COC(=O)c1cc(C(=O)C2CC2)n2ccc3ccccc3c12`, the IC50 in the test on HepG2 was determined as 9.3 µg/mL (≈ 31.7 µM).

The compound `CCOC(=O)c1c(C(=O)OCC)c2cc(C)ccn2c1C(=O)C1CC1` had an IC50 in the test with HepG2 of 0.29 µg/mL (≈ 0.845 µM).

Usually pIC50 stands for the negative decadic logarithm of the IC50, by convention in mol/L. Low values mean a high IC50, high ones a low IC50. Take `Cc1ccc(Br)c2c(C#N)cc(C(=O)C3CC3)n12`: the pIC50 in test [1] is 7.07. In the test with HepG2, this compound came in with an IC50 of 0.2 µg/mL (≈ 0.66 µM).

Regarding `O=C(Nc1ccccc1)c1cc(C(=O)C2CC2)n2ccccc12`, 0.56 µg/mL (≈ 1.84 µM) corresponded to half-maximal inhibition with HepG2 (IC50).

Consider `N#Cc1cc(C(=O)C2CC2)n2c(Br)cccc12`, for which the IC50 in the test on HepG2 stood at 1.8 µg/mL (≈ 6.23 µM). This IC50 is about 3.2-fold higher than that of the compound before.

In the test with HepG2, `COC(=O)c1cc(C(=O)C2CC2)n2ccccc12` had an IC50 of 6.6 µg/mL (≈ 27.1 µM).

As to `N#Cc1cc(C(=O)C2CC2)n2ccccc12`, the IC50 in the test with HepG2 is 0.32 µg/mL (≈ 1.52 µM).

Source of the values: ChEMBL document CHEMBL1177838, “Synthesis and antiproliferative activity of indolizine derivatives incorporating a cyclopropylcarbonyl group against Hep-G2 cancer cell line” (Eur J Med Chem, 2010).
